Data reported in patent US9983218B2, “Indole and indoline derivatives and methods of use thereof” (AbbVie Inc., priority 2008, dated 2018).
Read-outs that look alike come from different tables or passages of the source.

Test system: SK-N-SH human neuroblastoma cells
Assay: Serum deprivation/JC-1 mitochondrial membrane potential (MMP) assay
Assay type: cell-based
Conditions: for Emax: SK-N-SH, read-out: JC-1 max %; for EC50: SK-N-SH cells, serum deprivation ~18 hours, JC-1 ratio normalized to peak value for 10 μM dimebolin, single curve fit to mean data of n=2-3, read-out: EC50
Method in brief: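 Cells were serum-deprived ~18 h in MEM with or without compound (DMSO ≤1%), then stained with JC-1 for 35 min at 37° C. The red/green fluorescence ratio (560/595 vs 485/535 nm) was normalized to the peak response of 10 μM dimebolin. EC50 came from one curve fit to mean data (n=2-3, duplicates).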

[1] = Homo sapiens, percent maximal intensity in JC-1 ratio normalized to 10 μM dimebolin

Cc1ccc2c(c1)[C@H]1CN3CCC(CC3)[C@H]1N2CCc1ccc(C)nc1 (single isomer, unassigned) [Example 160]
Emax [1]: 194% | EC50 (Homo sapiens): 1.61 µM

CN1CCc2cc(-n3c4c(c5ccccc53)CN3CCC4CC3)ccc2C1 [Example 268, 6-(2-methyl-1,2,3,4-tetrahydroisoquinolin-6-yl)-3,4,5,6-tetrahydro-1H-2,5-ethanoazepino[4,3-b]indole]
Emax [1]: 237% | EC50 (Homo sapiens): 4.43 µM

Cc1ccc2c(c1)c1c(n2CCc2ccc(C)nc2)C[C@H]2CCC[C@@H]1N2 (single isomer, unassigned) [Example 120]
Emax [1]: 197% | EC50 (Homo sapiens): 3.4 µM

c1ccc2c(c1)c1c(n2-c2ccc3ccncc3c2)C2CCN(CC2)C1 [Example 270, 6-(isoquinolin-7-yl)-3,4,5,6-tetrahydro-1H-2,5-ethanoazepino[4,3-b]indole]
Emax [1]: 270% | EC50 (Homo sapiens): 2.81 µM

Cc1ccc2c(c1)c1c(n2S(=O)(=O)c2ccc(Cl)cc2)C2CCN1CC2 [Example 215, 5-[(4-chlorophenyl)sulfonyl]-8-methyl-2,3,4,5-tetrahydro-1,4-ethanopyrido[3,2-b]indole]
Emax [1]: 196% | EC50 (Homo sapiens): 3.34 µM

NC(=O)c1cc(-n2c3c(c4ccccc42)CN2CCC3CC2)ccc1N [Example 276, 2-amino-5-(3,4,5,6-tetrahydro-1H-2,5-ethanoazepino[4,3-b]indol-6(1H)-yl)benzamide]
EC50: 6.65 µM | JC-1 max % (percent maximal intensity in JC-1 ratio normalized to 10 μM dimebolin): 80.55%

Cc1ccc2c(c1)c1c(n2/C=C\c2ccc(C)nc2)C2CCN(CC2)C1 [Example 147, 9-methyl-6-[(Z)-2-(6-methylpyridin-3-yl)vinyl]-3,4,5,6-tetrahydro-1H-2,5-ethanoazepino[4,3-b]indole]
Emax [1]: 266% | EC50 (Homo sapiens): 2.53 µM

Fc1ccc2c(c1)c1c(n2-c2ccc3ccncc3c2)C2CCN(CC2)C1 [Example 223, 9-fluoro-6-isoquinolin-7-yl-3,4,5,6-tetrahydro-1H-2,5-ethanoazepino[4,3-b]indole]
Emax [1]: 287% | EC50 (Homo sapiens): 3.84 µM

c1ccc(Cn2c3c(c4ccccc42)CN2CCC3CC2)nc1 [Example 187, 6-[(pyridin-2-yl)methyl]-3,4,5,6-tetrahydro-1H-2,5-ethanoazepino[4,3-b]indole]
Emax [1]: 110% | EC50 (Homo sapiens): 9.37 µM

Cc1ccc2c(c1)[C@@H]1CN3CCC(CC3)[C@@H]1N2CCc1ccc(C)nc1 (single isomer, unassigned) [Example 159]
Emax [1]: 240% | EC50 (Homo sapiens): 2.67 µM

Fc1ccc2c(c1)c1c(n2Cc2cnc(-c3ccccc3)nc2)C2CCN(CC2)C1 [Example 249, 9-fluoro-6-[(2-phenylpyrimidin-5-yl)methyl]-3,4,5,6-tetrahydro-1H-2,5-ethanoazepino[4,3-b]indole]
Emax [1]: 133% | EC50 (Homo sapiens): 5.27 µM

Clc1ccc2nc(Cn3c4c(c5ccccc53)CN3CCC4CC3)cn2n1 [Example 257, 6-[(6-chloroimidazo[1,2-b]pyridazin-2-yl)methyl]-3,4,5,6-tetrahydro-1H-2,5-ethanoazepino[4,3-b]indole]
Emax [1]: 155% | EC50 (Homo sapiens): 3.6 µM

Cc1ccc2c(c1)c1c(n2-c2ccc3ccncc3c2)C[C@@H]2CC[C@H]1N2C [Example 68, (7S,10R)-5-isoquinolin-7-yl-2,11-dimethyl-5,6,7,8,9,10-hexahydro-7,10-epiminocyclohepta[b]indole]
Emax [1]: 213% | EC50 (Homo sapiens): 3.22 µM

Cc1ccc2c(c1)c1c(n2-c2ccc3ncccc3c2)C2CCN(CC2)C1 [Example 217, 9-methyl-6-quinolin-6-yl-3,4,5,6-tetrahydro-1H-2,5-ethanoazepino[4,3-b]indole]
Emax [1]: 182% | EC50 (Homo sapiens): 2.94 µM

Cc1ccc(CCn2c3c(c4cc(OC(F)(F)F)ccc42)C2CCCC(C3)N2)cn1 (stereo not shown) [Example 140, 5-[2-(6-methylpyridin-3-yl)ethyl]-2-(trifluoromethoxy)-6,7,8,9,10,11-hexahydro-5H-7,11-epiminocycloocta[b]indole]
Emax [1]: 194% | EC50 (Homo sapiens): 3.32 µM

c1ccc2c(c1)c1c(n2-c2ccc3c(c2)CCNC3)C2CCN(CC2)C1 [Example 267, 6-(1,2,3,4-tetrahydroisoquinolin-6-yl)-3,4,5,6-tetrahydro-1H-2,5-ethanoazepino[4,3-b]indole]
Emax [1]: 70% | EC50 (Homo sapiens): 9.72 µM

Cc1ccc2c(c1)c1c(n2/C=C\c2ccc(C)nc2)C[C@@H]2CC[C@H]1N2C [Example 24, (7S,10R)-2,11-dimethyl-5-[(Z)-2-(6-methylpyridin-3-yl)vinyl]-5,6,7,8,9,10-hexahydro-7,10-epiminocyclohepta[b]indole]
Emax [1]: 221% | EC50 (Homo sapiens): 2.26 µM

CCOC(=O)N1[C@H]2CC[C@@H]1c1c(n(CCc3ccc(C)nc3)c3ccc(C)cc13)C2 [Example 16, ethyl (7S,10R)-2-methyl-5-[2-(6-methylpyridin-3-yl)ethyl]-5,6,7,8,9,10-hexahydro-7,10-epiminocyclohepta[b]indole-11-carboxylate]
Emax [1]: 129% | EC50 (Homo sapiens): 8.38 µM

CN1CCN(c2ccc(-n3c4c(c5ccccc53)CN3CCC4CC3)cc2)CC1 [Example 237, 6-[4-(4-methylpiperazin-1-yl)phenyl]-3,4,5,6-tetrahydro-1H-2,5-ethanoazepino[4,3-b]indole]
Emax [1]: 174% | EC50 (Homo sapiens): 2.48 µM

Cc1ccc(/C=C\n2c3c(c4cc(S(C)(=O)=O)ccc42)CN2CCC3CC2)cn1 [Example 181, 6-[(Z)-2-(6-methylpyridin-3-yl)vinyl]-9-(methylsulfonyl)-3,4,5,6-tetrahydro-1H-2,5-ethanoazepino[4,3-b]indole]
Emax [1]: 103% | EC50 (Homo sapiens): 7.89 µM

Cc1ccc(/C=C\n2c3c(c4cc(C)ccc42)[C@@H]2CC[C@H](C3)N2C)cc1 (single isomer, unassigned) [Example 61]
Emax [1]: 211% | EC50 (Homo sapiens): 4.37 µM

Cc1ccc2c(c1)c1c(n2CCc2scnc2C)CC2CCC1N2C (stereo not shown) [Example 35, 2,11-dimethyl-5-[2-(4-methyl-1,3-thiazol-5-yl)ethyl]-5,6,7,8,9,10-hexahydro-7,10-epiminocyclohepta[b]indole]
Emax [1]: 78% | EC50 (Homo sapiens): 6.71 µM

Cc1ccc2c(c1)c1c(n2CCc2ccccc2F)CC2CCC1N2C (stereo not shown) [Example 43, 5-[2-(2-fluorophenyl)ethyl]-2,11-dimethyl-5,6,7,8,9,10-hexahydro-7,10-epiminocyclohepta[b]indole]
Emax [1]: 202% | EC50 (Homo sapiens): 7.64 µM

Cc1ccc2c(c1)c1c(n2-c2ccc3ncncc3c2)C2CCN(CC2)C1 [Example 219, 9-methyl-6-quinazolin-6-yl-3,4,5,6-tetrahydro-1H-2,5-ethanoazepino[4,3-b]indole]
Emax [1]: 201% | EC50 (Homo sapiens): 3.07 µM

c1ccc2c(c1)c1c(n2Cc2ccncc2)C2CCN(CC2)C1 [Example 189, 6-[(pyridin-4-yl)methyl]-3,4,5,6-tetrahydro-1H-2,5-ethanoazepino[4,3-b]indole]
Emax [1]: 107% | EC50 (Homo sapiens): 11.3 µM

Fc1cncc(Cn2c3c(c4cc(F)ccc42)CN2CCC3CC2)c1 [Example 246, 9-fluoro-6-[(5-fluoropyridin-3-yl)methyl]-3,4,5,6-tetrahydro-1H-2,5-ethanoazepino[4,3-b]indole]
Emax [1]: 148% | EC50 (Homo sapiens): 8.76 µM

Fc1ccc2c(c1)c1c(n2-c2ccc3ncncc3c2)C2CCN(CC2)C1 [Example 227, 9-fluoro-6-quinazolin-6-yl-3,4,5,6-tetrahydro-1H-2,5-ethanoazepino[4,3-b]indole]
Emax [1]: 266% | EC50 (Homo sapiens): 3.62 µM

Cc1ccc2c(c1)c1c(n2CCc2ccc(Cl)nc2)C2CC3CC1CN(C3)C2 (stereo not shown) [Example 196, 8-[2-(6-chloropyridin-3-yl)ethyl]-11-methyl-1,4,5,6,7,8-hexahydro-2H-1,5:3,7-dimethanoazonino[5,4-b]indole]
Emax [1]: 182% | EC50 (Homo sapiens): 3.91 µM

Fc1ccc2c(c1)c1c(n2Cc2ccc(C(F)(F)F)nc2)C2CCN(CC2)C1 [Example 183, 9-fluoro-6-{[6-(trifluoromethyl)pyridin-3-yl]methyl}-3,4,5,6-tetrahydro-1H-2,5-ethanoazepino[4,3-b]indole]
Emax [1]: 172% | EC50 (Homo sapiens): 8.97 µM

Cc1ccc2c(c1)c1c(n2CCc2ccc(C)nn2)C2CCN(CC2)C1 [Example 148, 9-methyl-6-[2-(6-methylpyridazin-3-yl)ethyl]-3,4,5,6-tetrahydro-1H-2,5-ethanoazepino[4,3-b]indole]
Emax [1]: 99% | EC50 (Homo sapiens): 3.52 µM

Cc1ccc2c(c1)c1c(n2CCc2ccccc2C)C2CCCN(C1)C2 (stereo not shown) [Example 203, 10-methyl-7-[2-(2-methylphenyl)ethyl]-1,3,4,5,6,7-hexahydro-2,6-methanoazocino[4,3-b]indole]
Emax [1]: 159% | EC50 (Homo sapiens): 4.53 µM

CCN1C2CCC1c1c(n(CCc3ccc(C)nc3)c3ccc(C)cc13)C2 (stereo not shown) [Example 12, 11-ethyl-2-methyl-5-[2-(6-methylpyridin-3-yl)ethyl]-5,6,7,8,9,10-hexahydro-7,10-epiminocyclohepta[b]indole]
Emax [1]: 181% | EC50 (Homo sapiens): 5.58 µM

Cc1ccc2c(c1)c1c(n2S(=O)(=O)c2ccccc2)CC2CCC1N2C (stereo not shown) [Example 69, 2,11-dimethyl-5-(phenylsulfonyl)-5,6,7,8,9,10-hexahydro-7,10-epiminocyclohepta[b]indole]
Emax [1]: 161% | EC50 (Homo sapiens): 4.43 µM

Cc1ccc2c(c1)c1c(n2CCc2ccccc2F)C2CCN(CC2)C1 [Example 150, 6-[2-(2-fluorophenyl)ethyl]-9-methyl-3,4,5,6-tetrahydro-1H-2,5-ethanoazepino[4,3-b]indole]
Emax [1]: 134% | EC50 (Homo sapiens): 3.6 µM

Cc1ccc(CCn2c3c(c4cc(C5CC5)ccc42)C2CCC(C3)N2C)cn1 (stereo not shown) [Example 103, 2-cyclopropyl-11-methyl-5-[2-(6-methylpyridin-3-yl)ethyl]-5,6,7,8,9,10-hexahydro-7,10-epiminocyclohepta[b]indole]
Emax [1]: 180% | EC50 (Homo sapiens): 4.17 µM
